Consider four molecules from ChEMBL document CHEMBL1201862, “PubChem BioAssay data set” (2004).

Calls of active or inactive are those of the source.

Assay [1] addresses Ribosomal protein S6 kinase alpha-3 (Homo sapiens, UniProt P51812). Type of assay: functional.
The target in assay [2] is Serine/threonine-protein kinase PLK3 (Homo sapiens, UniProt Q9H4B4). Type of assay: functional.
Assay [3] has as its target Proto-oncogene tyrosine-protein kinase receptor Ret (Homo sapiens, UniProt P07949). It is filed as functional.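 Note: measured within a kinome-wide profiling panel, RET as the panel member.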
Assay [4] deals with Serine/threonine-protein kinase 17A (Homo sapiens, UniProt Q9UEE5). It is filed as functional.
Assay [5] addresses Serine/threonine-protein kinase Chk2 (Homo sapiens, UniProt O96017). Type of assay: functional.
The target of a further assay is SRSF protein kinase 1 (Homo sapiens, UniProt Q96SB4). It is filed as functional.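 Note: measured as one member of a kinome-wide kinase profiling panel.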
The target in assay [6] is Mitogen-activated protein kinase 8 (Homo sapiens, UniProt P45983). Type of assay: functional.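 Note: value comes from one member of a kinome-wide kinase profiling panel.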
For a further assay, the target named is Aurora kinase A (Homo sapiens, UniProt O14965). It is filed as functional.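 Note: value from the Navigating the Kinome kinase panel profiling, panel entry STK6.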
The target of assay [7] is MAP kinase-activated protein kinase 2 (Homo sapiens, UniProt P49137). It is filed as functional.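 Note: measured as one member of a kinome-wide kinase panel.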
MAP kinase-activated protein kinase 2, sequence (P49137 whole entry): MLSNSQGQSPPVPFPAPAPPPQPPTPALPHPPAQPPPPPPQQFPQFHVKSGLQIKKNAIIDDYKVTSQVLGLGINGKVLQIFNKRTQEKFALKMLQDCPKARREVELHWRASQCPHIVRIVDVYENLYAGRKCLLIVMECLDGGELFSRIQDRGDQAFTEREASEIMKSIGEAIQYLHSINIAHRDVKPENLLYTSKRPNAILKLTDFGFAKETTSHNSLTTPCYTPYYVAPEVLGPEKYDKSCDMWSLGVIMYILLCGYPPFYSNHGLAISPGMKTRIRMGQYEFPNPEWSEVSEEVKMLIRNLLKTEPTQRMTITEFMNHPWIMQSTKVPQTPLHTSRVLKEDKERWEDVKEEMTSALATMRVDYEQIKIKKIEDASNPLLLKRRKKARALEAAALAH
The target in assay [8] is Tyrosine-protein kinase BTK (Homo sapiens, UniProt Q06187). Type of assay: functional.
Tyrosine-protein kinase BTK, sequence (Q06187 whole entry): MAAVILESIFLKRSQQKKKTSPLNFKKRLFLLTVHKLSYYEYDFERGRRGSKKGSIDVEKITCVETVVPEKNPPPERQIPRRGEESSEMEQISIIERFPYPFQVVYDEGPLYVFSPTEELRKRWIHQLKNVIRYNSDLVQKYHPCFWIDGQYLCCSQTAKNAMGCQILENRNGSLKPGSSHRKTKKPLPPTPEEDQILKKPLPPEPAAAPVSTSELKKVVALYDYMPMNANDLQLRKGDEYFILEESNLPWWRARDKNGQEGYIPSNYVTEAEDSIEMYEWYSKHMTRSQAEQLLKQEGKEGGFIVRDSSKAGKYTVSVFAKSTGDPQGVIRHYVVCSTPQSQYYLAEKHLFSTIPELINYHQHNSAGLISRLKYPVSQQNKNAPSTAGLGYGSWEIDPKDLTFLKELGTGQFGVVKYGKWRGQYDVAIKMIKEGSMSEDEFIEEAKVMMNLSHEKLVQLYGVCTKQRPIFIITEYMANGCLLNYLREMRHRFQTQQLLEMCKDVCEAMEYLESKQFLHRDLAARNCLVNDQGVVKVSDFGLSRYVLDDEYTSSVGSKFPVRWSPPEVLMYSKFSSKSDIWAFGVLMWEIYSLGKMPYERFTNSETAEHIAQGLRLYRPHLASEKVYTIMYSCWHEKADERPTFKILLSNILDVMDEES
Assay [9] concerns the target Tyrosine-protein kinase Lyn (Homo sapiens, UniProt P07948). Type of assay: functional.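 Note: lyn as one member of a kinase panel.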
Assay [10] has as its target Tyrosine-protein kinase ITK/TSK (Homo sapiens, UniProt Q08881). Type of assay: functional.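 Note: affinity for ITK measured as one member of a broad kinase panel profiling binding across the kinome.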
The target in assay [11] is Serine/threonine-protein kinase TAO1 (Homo sapiens, UniProt Q7L7X3). It is filed as functional.
Assay [12] deals with High affinity nerve growth factor receptor (Homo sapiens, UniProt P04629). It is filed as functional.
For assay [13], the target named is Mitogen-activated protein kinase kinase kinase kinase 2 (Homo sapiens, UniProt Q12851). Type of assay: functional.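 Note: measured as one member of a kinome-wide kinase panel, with MAP4K2 as the panel entry.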
The target in assay [14] is Hepatocyte growth factor receptor (Homo sapiens, UniProt P08581). Type of assay: functional.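 Note: kinase panel profiling across the kinome, with MET as the panel member.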
Assay [15] deals with Casein kinase I isoform delta (Homo sapiens, UniProt P48730). Type of assay: functional.
In assay [16] the target is Tyrosine-protein kinase ABL1 (Homo sapiens, UniProt P00519). It is filed as functional.
Another assay addresses Ephrin type-A receptor 2 (Homo sapiens, UniProt P29317). It is filed as functional.
Assay [17] addresses Protein kinase C iota type (Homo sapiens, UniProt P41743). Type of assay: functional.
The target in assay [18] is Maternal embryonic leucine zipper kinase (Homo sapiens, UniProt Q14680). Type of assay: functional.
Maternal embryonic leucine zipper kinase, sequence (Q14680 whole entry): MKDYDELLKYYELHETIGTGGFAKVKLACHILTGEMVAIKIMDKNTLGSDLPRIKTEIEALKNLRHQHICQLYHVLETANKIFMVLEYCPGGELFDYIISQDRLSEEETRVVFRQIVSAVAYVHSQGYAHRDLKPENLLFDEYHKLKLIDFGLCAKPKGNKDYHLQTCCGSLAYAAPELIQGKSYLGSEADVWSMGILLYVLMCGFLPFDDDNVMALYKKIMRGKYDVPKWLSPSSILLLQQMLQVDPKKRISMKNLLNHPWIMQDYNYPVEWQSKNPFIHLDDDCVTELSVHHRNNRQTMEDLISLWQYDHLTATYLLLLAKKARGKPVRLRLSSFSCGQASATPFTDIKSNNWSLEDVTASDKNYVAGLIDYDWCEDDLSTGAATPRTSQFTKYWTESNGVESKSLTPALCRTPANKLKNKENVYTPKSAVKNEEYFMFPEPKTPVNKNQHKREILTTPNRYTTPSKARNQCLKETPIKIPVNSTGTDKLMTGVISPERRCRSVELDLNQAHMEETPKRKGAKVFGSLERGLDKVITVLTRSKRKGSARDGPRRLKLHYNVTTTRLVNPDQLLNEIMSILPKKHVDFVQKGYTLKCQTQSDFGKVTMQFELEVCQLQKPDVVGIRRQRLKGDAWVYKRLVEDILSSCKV
The target of assay [19] is Vascular endothelial growth factor receptor 3 (Homo sapiens, UniProt P35916). Type of assay: functional.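 Note: value from a kinome-wide profiling panel, with FLT4 as the panel member.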
Assay [20] concerns the target Calcium/calmodulin-dependent protein kinase type 1 (Homo sapiens, UniProt Q14012). It is filed as functional.
The target in assay [21] is Tyrosine-protein kinase Fyn (Homo sapiens, UniProt P06241). It is filed as functional.
Tyrosine-protein kinase Fyn, sequence (P06241 whole entry): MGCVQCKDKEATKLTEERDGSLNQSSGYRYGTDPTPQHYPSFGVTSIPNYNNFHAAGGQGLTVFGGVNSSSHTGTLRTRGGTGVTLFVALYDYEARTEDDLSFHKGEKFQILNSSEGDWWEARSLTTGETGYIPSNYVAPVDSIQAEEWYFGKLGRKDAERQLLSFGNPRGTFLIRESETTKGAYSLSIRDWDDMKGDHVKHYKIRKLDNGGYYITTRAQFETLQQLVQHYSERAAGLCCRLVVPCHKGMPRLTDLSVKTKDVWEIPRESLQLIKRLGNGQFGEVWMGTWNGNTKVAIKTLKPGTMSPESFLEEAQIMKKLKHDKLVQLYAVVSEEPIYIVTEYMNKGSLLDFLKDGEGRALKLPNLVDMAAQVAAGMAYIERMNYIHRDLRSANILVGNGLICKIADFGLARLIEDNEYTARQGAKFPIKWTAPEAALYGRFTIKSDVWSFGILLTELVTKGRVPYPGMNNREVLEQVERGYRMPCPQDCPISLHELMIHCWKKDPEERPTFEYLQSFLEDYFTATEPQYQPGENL
Assay [22] deals with Serine/threonine-protein kinase pim-2 (Homo sapiens, UniProt Q9P1W9). Type of assay: functional.
For assay [23], the target named is Serine/threonine-protein kinase PLK1 (Homo sapiens, UniProt P53350). It is filed as functional.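 Note: PLK1 measured as one member of a kinome-wide profiling panel.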
Assay [24] deals with Macrophage-stimulating protein receptor (Homo sapiens, UniProt Q04912). Kind of assay: Navigating the Kinome. Panel member name: MST1R. Type of assay: functional.
Macrophage-stimulating protein receptor, sequence (Q04912 25-304 limits assumed): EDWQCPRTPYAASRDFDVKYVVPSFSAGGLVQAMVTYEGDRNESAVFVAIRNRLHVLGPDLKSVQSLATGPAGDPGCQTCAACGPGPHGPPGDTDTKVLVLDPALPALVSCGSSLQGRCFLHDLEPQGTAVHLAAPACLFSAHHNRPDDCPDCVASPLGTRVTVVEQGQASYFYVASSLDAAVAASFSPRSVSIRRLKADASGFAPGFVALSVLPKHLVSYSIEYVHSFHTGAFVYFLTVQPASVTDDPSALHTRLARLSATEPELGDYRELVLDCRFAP
Macrophage-stimulating protein receptor, sequence (Q04912 310-1400 limits assumed): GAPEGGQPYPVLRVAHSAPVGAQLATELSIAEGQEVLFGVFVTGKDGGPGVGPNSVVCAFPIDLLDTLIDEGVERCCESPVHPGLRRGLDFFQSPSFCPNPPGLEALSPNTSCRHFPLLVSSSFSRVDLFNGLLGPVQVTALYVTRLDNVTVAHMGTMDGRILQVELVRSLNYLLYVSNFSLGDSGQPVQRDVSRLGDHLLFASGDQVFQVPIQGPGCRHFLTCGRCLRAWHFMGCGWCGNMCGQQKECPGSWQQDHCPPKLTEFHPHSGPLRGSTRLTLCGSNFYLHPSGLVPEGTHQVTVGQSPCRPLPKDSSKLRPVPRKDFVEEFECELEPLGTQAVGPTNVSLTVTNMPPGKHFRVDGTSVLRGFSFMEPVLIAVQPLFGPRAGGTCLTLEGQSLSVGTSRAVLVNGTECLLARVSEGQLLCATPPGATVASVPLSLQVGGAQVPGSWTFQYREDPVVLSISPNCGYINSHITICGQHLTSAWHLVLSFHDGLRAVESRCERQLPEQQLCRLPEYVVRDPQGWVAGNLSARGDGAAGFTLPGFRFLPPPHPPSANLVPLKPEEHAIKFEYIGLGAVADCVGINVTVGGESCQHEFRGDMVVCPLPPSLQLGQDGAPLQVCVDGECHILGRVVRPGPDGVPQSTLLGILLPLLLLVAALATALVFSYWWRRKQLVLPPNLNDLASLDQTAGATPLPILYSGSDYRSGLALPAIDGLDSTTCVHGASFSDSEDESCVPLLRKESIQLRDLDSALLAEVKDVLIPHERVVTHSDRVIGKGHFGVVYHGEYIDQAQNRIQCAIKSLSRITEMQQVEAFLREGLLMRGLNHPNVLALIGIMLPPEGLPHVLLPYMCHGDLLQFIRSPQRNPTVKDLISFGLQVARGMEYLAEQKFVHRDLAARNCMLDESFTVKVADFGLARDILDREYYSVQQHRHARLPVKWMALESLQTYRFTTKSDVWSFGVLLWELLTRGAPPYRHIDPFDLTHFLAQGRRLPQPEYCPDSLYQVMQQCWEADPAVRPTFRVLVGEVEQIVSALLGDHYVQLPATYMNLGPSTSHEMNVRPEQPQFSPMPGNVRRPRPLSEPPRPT
For assay [25], the target named is Mitogen-activated protein kinase 14 (Homo sapiens, UniProt Q16539). It is filed as functional.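 Note: part of a kinome-wide panel, MAPK14 entry.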
The target of assay [26] is Tyrosine-protein kinase FRK (Homo sapiens, UniProt P42685). It is filed as functional.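 Note: FRK tested as one member of a kinome panel.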
Assay [27] can be described thus: NIH3T3 cell viability loss – ATP luminescence, mouse fibroblasts, counter-screen, dose response (AID 2010).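 Note: cells exposed to compound for about 90 hours before reading.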 It is filed as functional, cell-based.
Assay [28] concerns the target T1, Mannose-6-phosphate isomerase (Homo sapiens, UniProt P34949).
T1 sequence (P34949 whole entry): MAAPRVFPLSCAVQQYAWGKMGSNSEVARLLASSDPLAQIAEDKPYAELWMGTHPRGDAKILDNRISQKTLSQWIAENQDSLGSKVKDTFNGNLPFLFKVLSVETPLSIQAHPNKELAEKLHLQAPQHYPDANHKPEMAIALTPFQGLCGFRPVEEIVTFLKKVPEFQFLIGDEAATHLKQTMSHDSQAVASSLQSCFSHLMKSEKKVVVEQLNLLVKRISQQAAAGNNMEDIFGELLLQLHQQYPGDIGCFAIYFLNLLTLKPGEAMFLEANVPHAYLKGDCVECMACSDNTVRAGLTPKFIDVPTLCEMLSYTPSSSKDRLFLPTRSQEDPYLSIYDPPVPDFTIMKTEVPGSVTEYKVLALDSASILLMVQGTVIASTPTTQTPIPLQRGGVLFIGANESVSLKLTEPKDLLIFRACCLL
As to the kind of experiment: MPI inhibition at elevated mannose 6-phosphate – biochemical, fluorescence intensity, high mannose 6-phosphate, primary screen (AID 1220).

Assay [29] in a line: Fluorescence-based biochemical high throughput screening dose response assay to identify inhibitors of Crimean-Congo Hemorrhagic Fever (CCHF) viral ovarian tumor domain protease (vOTU): Pep-AMC substrate.
The target of another assay is T2, Caspase-6 (Homo sapiens, UniProt P55212).
T2 sequence (P55212 whole entry): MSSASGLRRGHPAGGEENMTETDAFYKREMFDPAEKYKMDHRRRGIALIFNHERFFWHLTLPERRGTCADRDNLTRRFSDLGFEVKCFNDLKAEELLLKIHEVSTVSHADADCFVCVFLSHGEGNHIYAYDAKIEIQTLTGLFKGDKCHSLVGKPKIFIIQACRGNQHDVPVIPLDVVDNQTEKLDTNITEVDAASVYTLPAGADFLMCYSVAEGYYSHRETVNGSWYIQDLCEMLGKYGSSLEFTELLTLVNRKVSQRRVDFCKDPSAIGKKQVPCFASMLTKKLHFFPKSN
As to the kind of experiment: inhibition of CASP6 peptide cleavage – biochemical, VEID-R110 fluorescence, cherry-pick, dose response (AID 720632).

A short description of assay [30]: luciferase reporter signal suppression in cells – H4 neuroglioma cells, luminescence, dose response (AID 1990). Type of assay: functional, cell-based. For orientation: Reporter assays use an easily measured gene product as a stand-in for the process of interest.
A short description of assay [31]: Luminescence Cell-Based Dose Response HTS to Identify Inhibitors of 5'UTR Stem-Loop Driven Prion Protein mRNA Translation in H4 Neuroglioblastoma Cells. [Related pubchem assays: 1827 (Project Summary), 1813 (Primary HTS)]. It is filed as functional.
The test system of the next assay is Vero. Kind of assay: viability of Vero cells under compound – cytotoxicity control for flavivirus capping enzyme inhibitors (AID 588742). Type of assay: functional. Conditions: Chlorocebus sabaeus.

Ribosomal protein S6 kinase alpha-3, sequence (P51812 whole entry): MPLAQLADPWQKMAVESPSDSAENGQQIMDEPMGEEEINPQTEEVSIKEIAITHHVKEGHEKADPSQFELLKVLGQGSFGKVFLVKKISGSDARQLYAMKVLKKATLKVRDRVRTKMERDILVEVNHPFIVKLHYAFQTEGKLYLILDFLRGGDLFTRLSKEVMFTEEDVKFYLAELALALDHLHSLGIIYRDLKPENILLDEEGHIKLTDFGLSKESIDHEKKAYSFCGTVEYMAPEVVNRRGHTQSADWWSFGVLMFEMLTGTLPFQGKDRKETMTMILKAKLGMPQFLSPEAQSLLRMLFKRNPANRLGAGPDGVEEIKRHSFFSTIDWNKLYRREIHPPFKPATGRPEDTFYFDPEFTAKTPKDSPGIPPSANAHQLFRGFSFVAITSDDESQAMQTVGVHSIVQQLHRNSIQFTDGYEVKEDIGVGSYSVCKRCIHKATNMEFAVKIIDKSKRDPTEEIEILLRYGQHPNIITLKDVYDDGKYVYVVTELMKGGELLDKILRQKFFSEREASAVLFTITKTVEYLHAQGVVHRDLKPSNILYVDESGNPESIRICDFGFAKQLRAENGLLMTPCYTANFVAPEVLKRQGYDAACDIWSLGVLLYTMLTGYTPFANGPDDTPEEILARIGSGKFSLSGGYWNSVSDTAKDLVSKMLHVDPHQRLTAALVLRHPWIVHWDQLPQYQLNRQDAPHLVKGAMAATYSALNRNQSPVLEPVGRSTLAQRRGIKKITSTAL
Serine/threonine-protein kinase PLK3, sequence (Q9H4B4 whole entry): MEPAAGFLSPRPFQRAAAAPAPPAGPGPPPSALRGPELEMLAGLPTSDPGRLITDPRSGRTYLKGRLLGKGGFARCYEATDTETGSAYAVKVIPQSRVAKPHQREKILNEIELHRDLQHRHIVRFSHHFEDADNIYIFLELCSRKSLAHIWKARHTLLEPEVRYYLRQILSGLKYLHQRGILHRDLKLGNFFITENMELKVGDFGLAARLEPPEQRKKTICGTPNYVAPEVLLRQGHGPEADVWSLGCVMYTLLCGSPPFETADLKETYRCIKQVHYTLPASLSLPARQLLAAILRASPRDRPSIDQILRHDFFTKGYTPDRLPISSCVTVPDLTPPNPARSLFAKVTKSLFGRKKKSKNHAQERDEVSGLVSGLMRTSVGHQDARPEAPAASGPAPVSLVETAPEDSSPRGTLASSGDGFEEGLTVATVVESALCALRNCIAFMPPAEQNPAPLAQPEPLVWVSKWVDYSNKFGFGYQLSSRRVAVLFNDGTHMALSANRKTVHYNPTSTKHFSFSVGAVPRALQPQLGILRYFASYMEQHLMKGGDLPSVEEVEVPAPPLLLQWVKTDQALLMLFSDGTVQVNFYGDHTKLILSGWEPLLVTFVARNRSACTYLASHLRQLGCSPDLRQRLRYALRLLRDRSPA

Take `Clc1cc(-c2c[nH]c3ncccc23)nc(NC2CCCCC2)n1`: the Ki in assay [1] was > 2000 nM (inactive); in assay [2], > 7940 nM (inactive); in assay [3], > 2000 nM (inactive); in assay [4], 1000 nM (active); in assay [5] it was > 1580 nM (inactive); at SRSF protein kinase 1, 794 nM (active). For the same molecule, the Ki is > 3160 nM (inactive) in [6]; > 1580 nM (inactive) on Aurora kinase A; > 7940 nM (inactive) in [7]; > 3980 nM (inactive) in [8]; > 1580 nM (inactive) in assay [9]; 1260 nM (active) in assay [10]. Besides, the Ki in assay [11] was > 7940 nM (inactive); in assay [12] it was 2000 nM (active); in assay [13], > 1260 nM (inactive); in [14] it was > 3160 nM (inactive); in [15], 63.1 nM (active); in [16] it was > 631 nM (inactive). For the same molecule, the Ki was > 3160 nM (inactive) at Ephrin type-A receptor 2; > 5010 nM (inactive) in [17]; 316 nM (active) in assay [18]; 251 nM (active) in assay [19]; > 6310 nM (inactive) in assay [20]; > 794 nM (inactive) in [21]. Also, the Ki in assay [22] was > 2000 nM (inactive); in assay [23] it was 501 nM (active); in assay [24], > 3980 nM (inactive); in assay [25], > 3980 nM (inactive); in assay [26] it was > 2510 nM (inactive).
`CCC(=O)NC(c1ccccc1OC)c1ccc2cccnc2c1O` (stereo unspecified): in [27], the EC50 was 1670 nM (active).
With `CC(C)N(C(=O)Nc1ccc2nsnc2c1)C(C)C`, the IC50 in assay [28] is > 50000 nM (not active); in assay [29], > 4250 nM (active). At Caspase-6, the AC50 is 5600 nM (active).
Turning to `NS(=O)(=O)c1ccc(NC2=CC(=O)C(=O)c3ccccc32)cc1`, the EC50 was > 120000 nM (not active) in assay [30] and 24400 nM (active) in [31]. Besides, in the assay on Vero, the CC50 is 11800 nM (active).

For orientation: Ki means a measure of affinity in units of concentration, obtained from inhibition or displacement. As a reminder, the EC50 is the concentration at which the effect is half-maximal. Broadly, the IC50 is the concentration needed to halve the response being measured. What is called AC50 is the concentration giving half of the maximal activity seen. Broadly, the CC50 is the concentration at which the toxic effect on the cells reaches its halfway point.
